{"source": "patent US4148787A", "about": "“Antidiuretically effective polypeptide and a process for preparing the same” (Ferring AB, priority 1976, dated 1979)", "key": {"[1]": {"experiment": "Relative antidiuretic activity in relation to DDAVP", "type": "in vivo", "settings": "relative activity figure, DDAVP arbitrarily set at 1.00", "source_text": "(§1) Thus, the strenghts in Table I are expressed as relative activity figures, data for DDAVP as a comparative compound being arbitrarily set at 1.00."}, "[2]": {"experiment": "Relative uterotonic activity in relation to DDAVP", "settings": "relative activity figure, DDAVP arbitrarily set at 1.00", "source_text": "as §1"}, "[3]": {"experiment": "Relative blood pressure (raising) activity in relation to DDAVP", "type": "in vivo", "source_text": "as §1"}}, "data": [{"smiles": "NC(=O)CC[C@@H]1NC(=O)[C@H](Cc2ccccc2)NC(=O)[C@H](Cc2ccc(O)cc2)NC(=O)CCSSC[C@@H](C(=O)N2CCC[C@H]2C(=O)N[C@H](CCCN=C(N)N)C(=O)NCC(N)=O)NC(=O)[C@H](CC(N)=O)NC1=O", "note": "[DDAVP, desamino-D-arginine^8 -vasopressin]", "values": [{"measurement": "Antidiuresis (relative activity)", "setting": "[1]", "value": 1.00}, {"measurement": "Uterotonic (relative activity)", "setting": "[2]", "value": 1.00}, {"measurement": "Blood pressure (relative activity)", "setting": "[3]; relative activity figure, DDAVP arbitrarily set at 1.00", "value": 1.00}]}, {"smiles": "NC(=O)CC[C@@H]1NC(=O)[C@H](Cc2ccccc2)NC(=O)[C@H](Cc2ccc(O)cc2)NC(=O)[C@@H](N)CSSC[C@@H](C(=O)N2CCC[C@H]2C(=O)N[C@@H](CCCN=C(N)N)C(=O)NCC(N)=O)NC(=O)[C@H](CC(N)=O)NC1=O", "note": "[Arg-vasopressin, arginine-vasopressin]", "values": [{"measurement": "Antidiuresis (relative activity)", "setting": "[1]", "value": 0.10}, {"measurement": "Uterotonic (relative activity)", "setting": "[2]", "value": 1.0}, {"measurement": "Blood pressure (relative activity)", "setting": "[3]; in vivo", "value": 1450}]}]}
